Test results as given in paper PMC9785474, “Solubility Enhancement of Dihydroquercetin via “Green” Phase Modification” (International Journal of Molecular Sciences, 2022).
≈ marks a conversion by molar mass, not a printed value.

Experiments:
[1] = Solubility by European Pharmacopeia (EP) express method; type: physicochemical; details: for Term by EP / solubility: water solubility, ambient conditions, European Pharmacopeia 10.0; for solubility: thermodynamic from solid
Procedure: Solubility is one of the key parameters to describe the biopharmaceutical characteristics of active pharmaceutical ingredients. There are different ways of solubility determination. One of them is an express method widely used in pharmaceutical science, described in European Pharmacopeia (EP). More accurate data may be obtained by the sedimentation method.
The analysis was performed in accordance with the pharmacopoeial monograph of European Pharmacopeia 10.0 [52] at ambient conditions.

[2] = Solubility by sedimentation method (centrifugation, UV spectrometry); type: physicochemical; details: for solubility: water, thermodynamic from solid
Procedure: Solubility is one of the key parameters to describe the biopharmaceutical characteristics of active pharmaceutical ingredients. There are different ways of solubility determination. One of them is an express method widely used in pharmaceutical science, described in European Pharmacopeia (EP). More accurate data may be obtained by the sedimentation method. […] To determine the concentration of DHQ solutions, UV spectrometry was applied. Three hundred mg of each DHQ sample were dissolved in 10.0 mL of […] and centrifuged for 5 min at 10,000 rpm by centrifuge MiniSpin® (Eppendorf AG, Hamburg, Germany). The analyzed solutions were prepared by dilution of the supernatant 50 μL up to 25 mL with distilled water. The UV spectra were recorded with a Cary-100 (Varian, Palo Alto, CA, USA). The accurate concentrations were calculated using a calibration curve.

[3] = ABTS/PP antioxidant capacity assay; details: for Antioxidant Capacity, n-Value: ABTS•+ radicals scavenged by one molecule of antioxidant, 6 min, 730 nm; for Antioxidant Capacity, n-Value / Antioxidant Capacity, ΔA: mean ± SD; for Antioxidant Capacity, ΔA: absorbance decrease at 730 nm, 6 min incubation at 32 °C, corrected for self-bleaching; for Changes of ΔA and n-values from DHQR (paired Student's t-test): compared with DHQR
Procedure: To compare the antioxidant capacity of DHQ in different forms, we employed the ABTS/PP assay, as reported by Re et al., with some modifications. In brief, an antioxidant was added to the pre-generated stock solution of radical-cation ABTS^•+, and then, after 6 min incubation in the dark place at 32 °C, the decrease in the absorption at 730 nm was calculated. ABTS^•+ self-bleaching after 6 min was measured in the same conditions without the addition of antioxidants. The initial ABTS^•+ absorbance in the incubation mix before the addition of an antioxidant was adjusted to […]. The stock solution of the radical-cation ABTS^•+ was prepared by the incubation of the ABTS with PP at final concentrations of 7 mM and 2.5 mM, respectively, during 12–16 h in the dark. UV-Vis spectra were obtained on a Cary 100 (Varian, Palo Alto, CA, USA).
The absorbance decrease ∆A at 730 nm due to inhibition of radical-cation ABTS^•+ was calculated as follows (5):∆A = A0 − A1 − ∆Asb,(5) where A0 and A1 are the ABTS^•+ absorbances at 730 nm, pathlength 1 cm, before and 6 min after the antioxidant addition, respectively. The self-bleaching of radical-cation ABTS^•+ ∆Asb was calculated as the difference between the ABTS^•+ absorbance right after the addition of stock ABTS^•+ to PBS to give absorbance 1.0 ± 0.1 and 6 min later.
The amount of ABTS^•+ radicals scavenged by one molecule of antioxidant (n-value) was calculated according to the Equation (6):(6) N=CABTS·+/Cantioxidant=ΔA/ε · Cantioxidant, where CABTS^•+ is the concentration of the scavenged ABTS^•+, ε is the extinction at 730 nm 15,000 L·mol^−1·cm^−1, l is the optical pathlength 1 cm, and Cantioxidant is the concentration of the antioxidant.

[4] = 300 mg in 10.0 mL, centrifuged 5 min at 10,000 rpm, UV spectrometry of supernatant, mean ± SD

| SMILES | Enhancement of water solubility compared with DHQR, EP method ([1]; compared with DHQR) | Term by EP [1] | Increase of solubility compared with DHQR, sedimentation method [2] [times] | solubility [2, 4] [mg/mL] | Antioxidant Capacity, n-Value [3] | Antioxidant Capacity, ΔA [3] | Changes of ΔA and n-values from DHQR (paired Student's t-test) [3] | solubility [1] [mg/mL] | Solubility, By Sedimentation Method [2, 4] [mg/mL] |
| --- | --- | --- | --- | --- | --- | --- | --- | --- | --- |
| O=C1c2c(O)cc(O)cc2O[C@H](c2ccc(O)c(O)c2)[C@H]1O [DHQE] | at least 30 fold | soluble | 4.4 | 3.09 ± 0.09 (≈ 10.2 mM) | 7.19 ± 0.37 | 0.504 ± 0.026 | statistically non-significant changes |  |  |
| O=C1c2c(O)cc(O)cc2OC(c2ccc(O)c(O)c2)C1O (stereo not shown) [DHQR, 2-(3,4-dihydroxyphenyl)-3,5,7-trihydroxy-2,3-dihydro-4H-1-benzopyran-4-one, reference compound] |  | very slightly soluble |  | 0.7 ± 0.02 (≈ 2.3 mM) | 7.30 ± 0.24 | 0.511 ± 0.017 |  | 0.1 to 1 (≈ 0.329 to 3.29 mM) |  |
| O=C1c2c(O)cc(O)cc2O[C@H](c2ccc(O)c(O)c2)[C@H]1O [DHQA] |  | slightly soluble | 3.1 |  | 7.13 ± 0.19 | 0.499 ± 0.014 | statistically non-significant changes | 1 to 10 (≈ 3.29 to 32.9 mM) | 2.14 ± 0.06 (≈ 7.03 mM) |
